Results taken from patent US20260240842A1, “METHODS TO PREVENT THERAPY RESISTANCE IN MELANOMA VIA BLOCKING GENOMIC INSTABILITY” (THE REGENTS OF THE UNIVERSITY OF CALIFORNIA, priority 2022, published 2026).

Tested on: p-DNA-PKcs (S2056)
Assay: Immunofluorescence of p-DNA-PKcs (S2056) nuclear foci in early on-treatment PDX tumors
Type: in vivo, NSG mice
Settings: with or without MEKi; Mel_PDX1, 11 days; FIG. 13F
Source text: FIGS. 13A-13H. In vivo impacts of DNA-PKi when combined with MAPKi. FIGS. 13A and 13B: Long-term follow-up of tumor volumes (13A, BRAFi+MEKi, n=5 tumors; BRAFi+MEKi+DNA-PKi, n=6 tumors) (13B, MEKi, n=6 tumors; MEKi+DNAP-PKi, n=6 tumors) and average mice body weights for 13A and 13B. Related to experiments in FIGS. 7B and 7E, respectively. FIGS. 13C and 13D, Tumor volumes (mean±SEM) of two examples of tumor models treated short-term with vehicle or indicated single versus combined agents. Inhibitors and dosages are identical to those in FIGS. 7C and 7E, respectively. The numbers of tumors and their sizes are shown in the photographs (right) taken at the times of tumor harvest (end points). FIGS. 13E to 13G: Immunofluorescence of p-ERK (13E), p-DNA-PKcs (S2056) (13F), or γH2AX (13G) levels in Mel_PDX1 tumor model, treated with vehicle or indicated single versus combined agents for 11 days (shown in 13C). DAPI, nuclear stain. Scale bar, 50 μm (13E) and 20 μm (13F and 13G). Representative images shown for two tumors analyzed per group. Quantification of p-DNA-PKcs signals obtained by taking the average of positively stained foci per nucleus (13F, representative of 4 fields). Quantification of γH2AX signals analyzed either by percentage of cells with γH2AX foci or percentage of cells with greater than 5 γH2AX foci (13G, representative of 4 fields). […]

For O=c1cc(N2CCOCC2)oc2c1ccc1ccccc12 [NU7026], the “nuclear p-DNA-PKCS foci” value was “suppressed nuclear p-DNA-PKCS foci”.
